Source: US7220775B2, “Compound useful for the treatment of neuropathic pain” (H. Lundbeck A/S, priority 2002, dated 2007)

Legend:
[1] = system: NE transporter (rNE Uptk); test: Binding at native NE transporter; set-up: species or system rat; conditions: Table 8
Method: (§1) The binding properties of the compounds of the present invention were evaluated at one or more cloned receptors or native, tissue-derived transporters, using protocols described below.
(§2) The methods to determine binding affinity at native transporters are described in the following publications: 5HT transporter and NE transporter (Owens et al., 1997), and DA transporter (Javitch et al, 1984).

[2] = target: NE transporter (rNE Uptk) (Rattus norvegicus, UniProt Q9WTR4); test: Binding at native NE transporter; conditions: Table 7, native transporter
Method: as §1, §2

[3] = target: T1, human GAL2 receptor (Homo sapiens, UniProt O43603); test: Radioligand binding at cloned human GAL2 receptor; conditions: Table 2, pyrimidines, read-out: Ki (nM) GalR2
T1 construct: expressed in transfected cells
T1 sequence (O43603 1-387): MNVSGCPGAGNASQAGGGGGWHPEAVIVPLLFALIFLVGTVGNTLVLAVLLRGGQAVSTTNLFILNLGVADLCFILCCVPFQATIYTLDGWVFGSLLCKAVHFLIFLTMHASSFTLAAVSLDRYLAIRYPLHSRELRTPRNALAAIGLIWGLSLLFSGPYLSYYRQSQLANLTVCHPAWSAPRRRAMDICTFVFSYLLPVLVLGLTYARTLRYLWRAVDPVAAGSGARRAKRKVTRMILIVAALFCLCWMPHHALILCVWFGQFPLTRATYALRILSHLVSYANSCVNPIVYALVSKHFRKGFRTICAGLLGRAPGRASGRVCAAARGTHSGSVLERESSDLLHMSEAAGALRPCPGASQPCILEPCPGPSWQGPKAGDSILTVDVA
Method: (§3) The present invention provides for a method of determining the binding affinity of a GAL3 antagonist, wherein the GAL3 antagonist is dissolved in a “suitable solvent”. A “suitable solvent” means one which permits the measurement of binding affinity of the GAL3 antagonist to the human GAL3 receptor at concentrations less than 1 μM, preferably less than 100 nM. Examples of solvents include, but are not limited to, DMSO, ethanol, N,N-dimethylacetamide, or water. For indolones, the preferred solvent is 3% DMSO (final concentration in the assay). For pyrimidines, the preferred solvent is 1% ethanol/0.09% polypuronic acid F-127 (final concentration in the assay). For any other type of compounds, the preferred solvent is the solvent which permits the measurement of binding affinity of a GAL3 antagonist at the lowest concentration. Once a suitable solvent is ascertained for the binding assay of the human GAL3 receptor, the same solvent is used in assays to determine the binding affinity for instance, at the GAL1 receptor.
(§4) LM(tk−) cells were stably transfected with the human GAL1 or GAL3 receptor. CHO cells were stably transfected with the human GAL2 receptor.
(§5) cDNAs for the human and rat GAL1, and human and rat GAL3 receptors were transfected with a G-418 resistant gene into the mouse fibroblast LM(tk−) cell line by a calcium phosphate transfection method (Cullen, 1987). Stably transfected cells were selected with G-418. Human and rat GAL2 receptors were similarly transfected into CHO cells.
Membranes were harvested from stably transfected LM(tk−) cells. Adherent cells were washed twice in ice-cold phosphate buffered saline (138 mM NaCl, 8.1 mM Na2HPO4, […] KCl, 1.2 mM KH2PO4, 0.9 mM CaCl2, 0.5 mM MgCl2, pH 7.4) and lysed by sonication in ice-cold sonication buffer (20 mM Tris-HCl, 5 mM EDTA, pH 7.7). […] Protein concentration was measured by the Bradford method (Bradford, 1976) using Pio-Rad Reagent, with bovine serum albumin as a standard. […]
(§6) Binding data were analyzed using nonlinear regression and statistical techniques available in the GraphPAD Prism package (San, Diego, Calif.). […]

[4] = target: T2, human GAL1 receptor (Homo sapiens, UniProt P47211); test: Radioligand binding at cloned human GAL1 receptor; conditions: Table 2, pyrimidines, read-out: Ki (nM) GalR1
T2 construct: expressed in transfected cells
T2 sequence (P47211 1-349): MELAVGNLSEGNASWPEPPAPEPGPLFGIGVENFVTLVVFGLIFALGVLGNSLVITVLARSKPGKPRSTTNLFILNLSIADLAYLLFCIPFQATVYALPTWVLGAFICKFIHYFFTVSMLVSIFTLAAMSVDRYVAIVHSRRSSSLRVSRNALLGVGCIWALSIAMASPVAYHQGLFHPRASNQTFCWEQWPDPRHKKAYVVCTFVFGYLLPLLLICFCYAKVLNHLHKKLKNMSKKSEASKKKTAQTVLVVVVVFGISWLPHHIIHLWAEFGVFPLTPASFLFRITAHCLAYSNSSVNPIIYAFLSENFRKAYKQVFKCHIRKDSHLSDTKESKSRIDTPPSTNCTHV
Method: as §3, §4, §5
Membranes were harvested from stably transfected LM(tk−) cells. Adherent cells were washed twice in ice-cold phosphate buffered saline (138 mM NaCl, 8.1 mM Na2HPO4, […] KCl, 1.2 mM KH2PO4, 0.9 mM CaCl2, 0.5 mM MgCl2, pH 7.4) and lysed by sonication in ice-cold sonication buffer (20 mM Tris-HCl, 5 mM EDTA, pH 7.7). Large particles and debris were cleared by low speed centrifugation (200×g, 5 min, 4° C.). Membranes were collected from the supernatant fraction by centrifugation (32,000×g, 18 min, 4° C.), washed with ice-cold hypotonic buffer, and collected again by centrifugation (32,000×g, 18 min, 4° C.). The final membrane pellet was resuspended by sonication into a small volume of ice-cold binding buffer (˜1 ml for every 5 plates: 10 mM NaCl, […] HEPES, 0.22 mM KH2PO4, 1.26 mM Cal2, 0.81 mM MgSO4, pH 7.4). Protein concentration was measured by the Bradford method (Bradford, 1976) using Pio-Rad Reagent, with bovine serum albumin as a standard. Membranes were held on ice for up to one hour and used fresh, or flash frozen and stored in liquid nitrogen. Membranes were prepared similarly from CHO cells. […]
as §6

[5] = system: neuropathic rats (chronic constriction nerve injury); test: Chronic constriction nerve injury model of neuropathic pain: thermal hyperalgesia (Thermal Plantar Test); assay type: in vivo, rat; conditions: 10 mg/kg i.p.
Method: (§7) The aim of this study was to assess the potential analgesic effects of Example 92 following intraperitoneal administration at the doses of 3, 10 and 30 mg/kg, respectively, in an animal model of neuropathic pain. A peripheral mononeuropathy was induced in the right hind limb of rats following a chronic constriction nerve injury (Bennett and Xie, 1988), and the development of mechanical allodynia and thermal hyperalgesia was monitored using established behavioral tests (Attal, N., et al., 1990; Hargreaves, K., et al., 1988).
(§8) Male Sprague-Dawley rats within the weight range of 200-225 g, and approximate age 7-9 weeks, were allowed to acclimate for a minimum of 6 days prior to the start of the behavioral testing.
(§9) All rats underwent a chronic constriction nerve injury, and of these, those that successfully developed allodynia and hyperalgesia were allocated to treatment groups.
(§10) There were 5 separate treatment groups (with a minimum of 10 rats per group). The treatment groups were as follows: • Group C received Morphine at 10 mg/kg (n=10) • Group D received Vehicle for Example 92* at 1 ml/kg (n=10) (* 100% DMSO) • Group E received Example 92 at 30 mg/kg (n=10) • Group F received Example 92 at 3 mg/kg (n=10) • Group G received Example 92 at 10 mg/kg (n=10)
(§11) The dose volume for all treatments was 1 ml/kg. Each rat received a single i.p. dose of the test substance, reference substance or vehicle on Day 12 PO. Test substance and vehicle dosing solutions were encoded (C-G) so that the observers were unaware of the identity of the treatment groups.
(§12) The behavioral tests (Von Frey filament and Thermal Plantar Tests—see below) were performed on all rats on 3 separate days prior to […], to establish baseline values. The pre-surgery baseline values were calculated as the mean of the last 2 days testing (the data from the first day of testing were not included as this was classed as part of the acclimating period). The sequence of tests was always mechanical allodynia (Von Frey Test) followed by thermal hyperalgesia (Thermal Plantar Test), with a minimum 5 min period allowed between the 2 tests.
Each rat was placed in a clear plastic chamber with a glass floor and allowed a short period to acclimatize to the new environment (approximately 5 min.). The animals were then challenged with a radiant Infrared (IR) heat source, directed at the plantar surface of the hind paw from below, and the withdrawal latency of both the ipsilateral and contralateral hind paws was evaluated. The infrared intensity was set at IR50 and the maximum length of exposure to the IR source was 18 s. Non-responding animals were allocated a withdrawal latency of 18 s.
The animals were surgically prepared over 5 days. […]

[6] = system: neuropathic rats (chronic constriction nerve injury); test: Chronic constriction nerve injury model of neuropathic pain: mechanical allodynia (Von Frey filaments); assay type: in vivo, rat; conditions: 10 mg/kg i.p.
Method: as §7, §8, §9, §10, §11, §12
Each animal was placed in a wire mesh cage and a series of Von Frey filaments (ranging from filament handle number 3.61 to 6.10) applied to the plantar surface of the hind paw, from below. The filaments were applied in ascending order (starting with the weakest force) and the withdrawal threshold for both the ipsilateral and contralateral hind paws was evaluated. Each filament was indented on the plantar surface of the foot to the point where it just started to bend, and this was repeated approximately 8-10 times per filament at a frequency of approximately 1 Hz. The withdrawal threshold was defined as the lowest force of two or more consecutive Von Frey filaments to elicit a reflex withdrawal response.
The animals were surgically prepared over 5 days. Each rat was anaesthetized with sodium pentobarbitone (60 mg/ml; 0.6 ml/kg dose, intraperitonealy; batch number 00230; expiry date 22 May 3) and then supplemented as necessary with isoflurane (1-3% in oxygen). The surface around the incision site was shaved and then sterilized with surgical spirit. Under aseptic conditions the right sciatic nerve was exposed by blunt dissection at mid-thigh level and approximately 1 cm of nerve was freed of adhering connective tissue. Four chromic cat gut (4.0) ligatures, spaced at approximately 1 mm inzervals, were then tied so as to barely constrict the nerve (as viewed under 40× magnification) to induce a peripheral mononeuropathy in the right hind limb. The overlying muscle and skin were then closed in layers using suture material, and the anesthesia discontinued. On recovery from anesthesia, the rats were re-housed with their cage mates on soft padded bedding overnight (to reduce the risk of infection) and subsequently on sawdust bedding following full recovery. The animals were allowed 4 full days to recover before the behavioral testing was recommenced. […]

SMILES: Cc1ccc(Nc2cc(N3CCCCC3)nc(N(C)CCc3c[nH]c4ccccc34)n2)cc1 [Example 11]
- selectivity ratio rNE Uptk (Ki rNE Uptk / Ki hGAL3) [1]: >100
- Ki [2]: > 50 µM

SMILES: CN(CCc1c[nH]c2ccccc12)c1nc(Nc2ccc(F)c(F)c2)cc(N2CCCCC2)n1 [Example 15]
- selectivity ratio rNE Uptk (Ki rNE Uptk / Ki hGAL3) [1]: >100
- Ki [2]: > 50 µM

SMILES: COc1cccc(Nc2cc(N3CCCCC3)nc(N(C)CCc3c[nH]c4ccccc34)n2)c1 [Example 17]
- selectivity ratio rNE Uptk (Ki rNE Uptk / Ki hGAL3) [1]: >100
- Ki [2]: 18.3 µM

SMILES: Cc1ccc(Nc2cc(N3CCCCC3)nc(N(C)CCc3ccccc3)n2)cc1 [Example 22]
- selectivity ratio rNE Uptk (Ki rNE Uptk / Ki hGAL3) [1]: >100
- Ki [2]: 13.1 µM

SMILES: Cc1ccc(Nc2cc(N3CCCCC3)nc(N3CCN(c4ncccc4C(F)(F)F)CC3)n2)cc1 [Example 34]
- selectivity ratio rNE Uptk (Ki rNE Uptk / Ki hGAL3) [1]: >100
- Ki [2]: > 50 µM

SMILES: Cc1ccccc1Nc1cc(N(C)C)nc(Nc2ccccc2)n1 [Example 51]
- Ki [3]: > 5000 nM
- Ki [4]: > 5000 nM

SMILES: CN(C)c1cc(Nc2ccc(Cl)c(Cl)c2)nc(Nc2ccccc2)n1 [Example 60]
- Ki [2]: 46.1 µM

SMILES: C[C@H]1CC2CC([C@@H]1Nc1cc(N(C)C)nc(Nc3ccccc3)n1)C2(C)C (stereo partly shown) [Example 71]
- Ki [4]: > 5000 nM

SMILES: Cc1ccc(Nc2cc(N(C)C)nc(N(C)CCc3c[nH]c4ccccc34)n2)cc1 [Example 77]
- selectivity ratio rNE Uptk (Ki rNE Uptk / Ki hGAL3) [1]: >100
- Ki [2]: 28.1 µM

SMILES: O=C1C(=Nc2cccc(Cl)c2)c2ccccc2N1c1ccccc1 [Example 94, 3-[(3-CHLOROPHENYL)IMINO]-1-PHENYL-1,3-DIHYDRO-2H-INDOL-2-ONE]
- selectivity ratio rNE Uptk (Ki rNE Uptk / Ki hGAL3) [1]: >30
- Ki [2]: 4.88 µM

SMILES: O=C1C(=Nc2ccc(C(F)(F)F)cc2)c2ccccc2N1c1ccccc1 [Example 95, 1-PHENYL-3-[[4-(TRIFLUOROMETHYL)PHENYL]IMINO]-1,3-DIHYDRO-2H-INDOL-2-ONE]
- selectivity ratio rNE Uptk (Ki rNE Uptk / Ki hGAL3) [1]: >100
- Ki [2]: 6.1 µM

SMILES: O=C1C(=Nc2ccc(Cl)cc2)c2ccccc2N1c1ccccc1 [Example 97, 3-[(4-CHLOROPHENYL)IMINO]-1-PHENYL-1,3-DIHYDRO-2H-INDOL-2-ONE]
- selectivity ratio rNE Uptk (Ki rNE Uptk / Ki hGAL3) [1]: >30
- Ki [2]: 4.41 µM

SMILES: O=C1C(=Nc2ccc(Br)cc2)c2ccccc2N1c1ccccc1 [Example 98, 3-[(4-BROMOPHENYL)IMINO]-1-PHENYL-1,3-DIHYDRO-2H-INDOL-2-ONE]
- selectivity ratio rNE Uptk (Ki rNE Uptk / Ki hGAL3) [1]: >100
- Ki [2]: 5.5 µM

SMILES: CN1CC[C@]23c4c5ccc(O)c4O[C@H]2[C@@H](O)C=C[C@H]3[C@H]1C5 [morphine, reference compound]
- effect on withdrawal latency of the nerve-injured hind paw to the thermal plantar device ([5]; approx. 40 and 100 min PD): significantly increased
- withdrawal latency to a noxious heat stimulus, nerve-injured and contralateral hind paws ([5]; up to 100 min PD): significant increase
- contralateral paw effects (Von Frey) ([6]; 30 and 90 min): significant contralateral effects
- effect on withdrawal threshold of the nerve-injured hind paw (Von Frey) ([6]; up to 90 min PD): significantly increased
